Measured values: PMC8834506, “Optimization of Thymidine Kinase-Based Safety Switch for Neural Cell Therapy” (Cells, 2022)
Where two headings read alike, the source gives them in different places.

Legend:
[1] = system: hESC (HS420) expressing Ki67-SR39; experiment: ATP-based cell survival assay, GCV-induced cell death; parameters: species or system human; conditions: for EC50: Homo sapiens
Method: (§1) Our first generation of suicide gene was engineered with the wild type thymidine kinase (wt-TK). To improve the suicide gene efficacy, we investigated different TK variants; wt-TK, 30-GMK, SR39, SR39h, and SR39h D116E variants. These sequences were chosen based on the analysis of the literature investigating HSV1-TK variants, as well as a gain of function mutation in the CMV UL-97 kinase. The efficacy of each variants was determined as percentage of cell survival following prodrug treatment compared to non-treated hESC. For this purpose, we used the ATP-based assay, which measures cellular ATP content and thereby provides a reliable estimate of the number of healthy cells. The 50% effective concentration (EC50) was defined as the drug concentration required to reduce the percentage of cell survival by 50%. […] In order to optimize our system, we first replaced the wt-TK by the 30-GMK variant, which is a fusion between the 30 TK variant and guanylate kinase (GMK). Note that GMK is mediating the second phosphorylation step of antiviral nucleoside analogs. […] Microbial codon usage might not yield optimal results in human cells. We therefore adapted the SR39 sequence to a typical human codon usage. For this purpose, 218 of the total 376 codons of the SR39 sequence were changed (for details see Supplementary Sequence 1 and Method section). We will refer to this sequence as the SR39h variant.
(§2) Figure 1 EC50 of ganciclovir (GCV) in cell expressing different thymidine kinase (TK) variants. […] Number of surviving cells was monitored using bioluminescent ATP-based assay. […]
Cell culture plate (96 wells plate Corning #3907, Corning, Lonay, Switzerland) were pre-coated with 60 μL per well of Poly-L-ornithine solution (Sigma, Merk, Eysins, Switzerland) at 37 °C for 30 min. […] For EC50 assays, the medium was changed daily for 4 days, then cell viability was assessed using an ATP-based assay. EC50 values for each construct were calculated using a four parameters equation (GraphPad, Prism8, San Diego, CA, USA). […]

[2] = system: hESC (HS420) expressing Ki67-SR39h D116E; experiment: as above; conditions: Homo sapiens
Method: as §1, with “For this purpose, 218 of the total 376 codons of the SR39 sequence were changed (for details see Supplementary Sequence 1 and Method section). We will refer to this sequence as the SR39h variant.” left out
as §2

[3] = 10 mg/kg/day; cited from earlier work

Structure (SMILES): Nc1nc(O)c2ncn(COC(CO)CO)c2n1 [GCV, ganciclovir]
- Fold increase compare to wt-TK (fold reduction in EC50) ([1]; GCV EC50 ratio, Ki67-SR39 vs wt-TK): 50 fold
- EC50 ([1]; 96 h, read-out: EC50 of GCV (cell survival)): 2 nM
- EC50 ([1]; 96 h GCV exposure, Ki67-SR39, read-out: GCV EC50): 1.9 nM
- EC50 ([2]; 96 h, read-out: GCV EC50 in M): 0.56 nM
- EC50 ([2]; 96 h GCV exposure, SR39h D116E variant, read-out: EC50 of GCV (cell survival)): 0.6 nM
- Side effects at the maximal recommended doses [3]: considerable side effects
